Where a name gives a salt, the structure may show the parent alone.
Key:
[1] = target: isolated recombinant JAK2 kinase domain (Homo sapiens (Human), UniProt O60674); assay: JAK2 enzyme assay (Caliper LabChip, peptide phosphorylation); assay type: biochemical; details: 25 μM ATP
[2] = target: isolated recombinant JAK1 kinase domain (Homo sapiens (Human), UniProt P23458); assay: JAK1 enzyme assay (Caliper LabChip, peptide phosphorylation); assay type: biochemical; details: isolated recombinant JAK1 kinase domain, 25 μM ATP
Sequence of isolated recombinant JAK1 kinase domain (P23458 875-1153): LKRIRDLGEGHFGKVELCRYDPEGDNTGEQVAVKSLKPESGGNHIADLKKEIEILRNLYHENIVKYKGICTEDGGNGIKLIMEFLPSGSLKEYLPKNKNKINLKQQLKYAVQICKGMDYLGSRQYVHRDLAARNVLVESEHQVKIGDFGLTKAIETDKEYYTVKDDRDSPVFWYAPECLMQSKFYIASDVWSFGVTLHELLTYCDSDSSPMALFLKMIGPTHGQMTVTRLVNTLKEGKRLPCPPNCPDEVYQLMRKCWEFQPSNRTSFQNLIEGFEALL

[3] = system: JAK1-dependent STAT6 phosphorylation downstream of IL-13 stimulation in BEAS-2B human bronchial epithelial cells; assay: JAK1 pathway assay in BEAS-2B cells (IL-13-pSTAT6, MSD); assay type: cell-based; details: read-out: IL13-pSTAT6 EC50 (uM)_BEAS-2B
In short: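 BEAS-2B: 1 h, complete growth medium, 100,000 cells/well. TF-1: 30 min, serum-free OptiMEM after overnight GM-CSF starvation, 300,000 cells/well. EC50 reported.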

Sequence of isolated recombinant JAK2 kinase domain (O60674 849-1124): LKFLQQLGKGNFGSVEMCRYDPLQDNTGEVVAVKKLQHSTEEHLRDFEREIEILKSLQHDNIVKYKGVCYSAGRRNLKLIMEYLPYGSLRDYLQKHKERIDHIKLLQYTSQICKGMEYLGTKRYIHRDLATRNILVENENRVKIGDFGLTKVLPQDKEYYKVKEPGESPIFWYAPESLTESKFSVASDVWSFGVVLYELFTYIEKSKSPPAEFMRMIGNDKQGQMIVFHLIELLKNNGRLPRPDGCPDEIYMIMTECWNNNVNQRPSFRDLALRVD

Ki [1] [nM] | Ki [2] [nM] | SMILES | EC50 [3] [µM]
1.05 | 0.49 | O=C(Nc1cn(CC(=O)N2CCC(C(=O)OCCN3CCOCC3)CC2)nc1-c1cc(Cl)ccc1OC(F)F)c1cnn2cccnc12 [Example 336, 2-(morpholin-4-yl)ethyl 1-(2-[3-[5-chloro-2-(difluoromethoxy)phenyl]-4-[pyrazolo[1,5-a]pyrimidine-3-amido]-1H-pyrazol-1-yl]acetyl)piperidine-4-carboxylate] | 0.0145
2.52 | 0.83 | CCOC(=O)C1(C)CCN(CCN2CCN(C(=O)Cn3cc(NC(=O)c4cnn5cccnc45)c(-c4cc(Cl)ccc4OC(F)F)n3)CC2)CC1 [Example 337, ethyl 1-[2-[4-(2-[3-[5-chloro-2-(difluoromethoxy)phenyl]-4-[pyrazolo[1,5-a]pyrimidine-3-amido]-1H-pyrazol-1-yl]acetyl)piperazin-1-yl]ethyl]-4-methylpiperidine-4-carboxylate formate] | 0.0232
1.01 | 0.41 | CC1(C(=O)OCCN2CCOCC2)CCN(C(=O)Cn2cc(NC(=O)c3cnn4cccnc34)c(-c3cc(Cl)ccc3OC(F)F)n2)CC1 [Example 339, 2-(morpholin-4-yl)ethyl1-(2-[3-[5-chloro-2-(difluoromethoxy)phenyl]-4-[pyrazolo[1,5-a]pyrimidine-3-amido]-1H-pyrazol-1-yl]acetyl)-4-methylpiperidine-4-carboxylate] | 0.0094
1.79 | 0.44 | CN(C)CCOC(=O)C1(C)CCN(C(=O)Cn2cc(NC(=O)c3cnn4cccnc34)c(-c3cc(Cl)ccc3OC(F)F)n2)CC1 [Example 340, 2-(dimethylamino)ethyl 1-(2-[3-[5-chloro-2-(difluoromethoxy)phenyl]-4-[pyrazolo[1,5-a]pyrimidine-3-amido]-1H-pyrazol-1-yl]acetyl)-4-methylpiperidine-4-carboxylate] | 0.009
2.62 | 0.53 | O=C(Nc1cn(CC(=O)N2CCC(C(=O)OCC3CCNCC3)CC2)nc1-c1cc(Cl)ccc1OC(F)F)c1cnn2cccnc12 [Example 341, piperidin-4-ylmethyl 1-(2-[3-[5-chloro-2-(difluoromethoxy)phenyl]-4-[pyrazolo[1,5-a]pyrimidine-3-amido]-1H-pyrazol-1-yl]acetyl)piperidine-4-carboxylate] | 0.534
0.2 | 0.19 | O=C(Nc1cn(CC(=O)N2CCC(C(=O)O)CC2)nc1-c1cc(Cl)ccc1OC(F)F)c1cnn2cccnc12 [Example 342, 1-(2-[3-[5-chloro-2-(difluoromethoxy)phenyl]-4-[pyrazolo[1,5-a]pyrimidine-3-amido]-1H-pyrazol-1-yl]acetyl)piperidine-4-carboxylic acid] | 1.81
1.9 | 0.7 | CN(CC1CCC(=O)O1)C1CCN(C(=O)Cn2cc(NC(=O)c3cnn4cccnc34)c(-c3cc(Cl)ccc3OC(F)F)n2)CC1 (stereo not drawn) [Example 344, N-[3-[5-chloro-2-(difluoromethoxy)phenyl]-1-[2-(4-[methyl[(5-oxooxolan-2-yl)methyl]amino]piperidin-1-yl)-2-oxoethyl]-1H-pyrazol-4-yl]pyrazolo[1,5-a]pyrimidine-3-carboxamide] | 0.0484
1.47 | 0.59 | COC(=O)CCN(C)C1CCN(C(=O)Cn2cc(NC(=O)c3cnn4cccnc34)c(-c3cc(Cl)ccc3OC(F)F)n2)CC1 [Example 345, methyl 3-[[1-(2-[3-[5-chloro-2-(difluoromethoxy)phenyl]-4-[pyrazolo[1,5-a]pyrimidine-3-amido]-1H-pyrazol-1-yl]acetyl)piperidin-4-yl](methyl)amino]propanoate] | 0.0166
0.31 | 0.37 | CSc1ccc(CNCCn2cc(NC(=O)c3cnn4cccnc34)c(-c3cc(Cl)ccc3OC(F)F)n2)cc1 [Example 346, N-[3-[5-chloro-2-(difluoromethoxy)phenyl]-1-[2-([[4-(methylsulfanyl)phenyl]methyl]amino)ethyl]-1H-pyrazol-4-yl]pyrazolo[1,5-a]pyrimidine-3-carboxamide formate] | 0.115
0.76 | 0.39 | O=C1CC(N2CCN(C(=O)Cn3cc(NC(=O)c4cnn5cccnc45)c(-c4cc(Cl)ccc4OC(F)F)n3)CC2)CCO1 (stereo not drawn) [Example 347, N-[3-[5-chloro-2-(difluoromethoxy)phenyl]-1-[2-oxo-2-[4-(2-oxooxan-4-yl)piperazin-1-yl]ethyl]-1H-pyrazol-4-yl]pyrazolo[1,5-a]pyrimidine-3-carboxamide] | 0.0307
1.65 | 0.55 | CN1CCN(C2CCN(C(=O)Cn3cc(NC(=O)c4cnn5cccnc45)c(-c4cc(Cl)ccc4OC(F)F)n3)CC2)CC1 [Example 349, N-[3-[5-chloro-2-(difluoromethoxy)phenyl]-1-[2-[4-(4-methylpiperazin-1-yl)piperidin-1-yl]-2-oxoethyl]-1H-pyrazol-4-yl]pyrazolo[1,5-a]pyrimidine-3-carboxamide] | 0.0155
1.42 | 0.43 | CN1CCN(CC2CCN(C(=O)Cn3cc(NC(=O)c4cnn5cccnc45)c(-c4cc(Cl)ccc4OC(F)F)n3)CC2)CC1 [Example 350, N-[3-[5-chloro-2-(difluoromethoxy)phenyl]-1-(2-[4-[(4-methylpiperazin-1-yl)methyl]piperidin-1-yl]-2-oxoethyl)-1H-pyrazol-4-yl]pyrazolo[1,5-a]pyrimidine-3-carboxamide] | 0.0094
0.94 | 0.46 | O=C1C=C(CN2CCN(C(=O)Cn3cc(NC(=O)c4cnn5cccnc45)c(-c4cc(Cl)ccc4OC(F)F)n3)CC2)CO1 [Example 351, N-[3-[5-chloro-2-(difluoromethoxy)phenyl]-1-(2-oxo-2-[4-[(5-oxo-2,5-dihydrofuran-3-yl)methyl]piperazin-1-yl]ethyl)-1H-pyrazol-4-yl]pyrazolo[1,5-a]pyrimidine-3-carboxamide] | 0.0365
0.75 | 0.33 | CN(CC1=CC(=O)OC1)C1CCN(C(=O)Cn2cc(NC(=O)c3cnn4cccnc34)c(-c3cc(Cl)ccc3OC(F)F)n2)CC1 [Example 352, N-[3-[5-chloro-2-(difluoromethoxy)phenyl]-1-[2-(4-[methyl[(5-oxo-2,5-dihydrofuran-3-yl)methyl]amino]piperidin-1-yl)-2-oxoethyl]-1H-pyrazol-4-yl]pyrazolo[1,5-a]pyrimidine-3-carboxamide] | 0.0124
0.66 | 0.93 | O=C(Nc1cn([C@@H]2CCNC[C@H]2O)nc1-c1cc(Cl)ccc1OC(F)F)c1cnn2cccnc12 [Example 358, N-[3-[5-chloro-2-(difluoromethoxy)phenyl]-1-[(3R,4R)-3-hydroxypiperidin-4-yl]-1H-pyrazol-4-yl]pyrazolo[1,5-a]pyrimidine-3-carboxamide] | 0.0133
2.7 | 3.85 | O=C(Nc1cn([C@H]2CCNC[C@@H]2O)nc1-c1cc(Cl)ccc1OC(F)F)c1cnn2cccnc12 [Example 359, N-[3-[5-chloro-2-(difluoromethoxy)phenyl]-1-[(3S,4S)-3-hydroxypiperidin-4-yl]-1H-pyrazol-4-yl]pyrazolo[1,5-a]pyrimidine-3-carboxamide] | 0.0309
